Laboratory results as given in ChEMBL document CHEMBL1201862, “PubChem BioAssay data set” (2004).
The source made the active and inactive calls.

Key:
HEK293 [1] = assay: cells; conditions: Homo sapiens
[2] = Counterscreen for activators of the function of SWI/SNF related, matrix associated, actin dependent regulator of chromatin, subfamily a, member 2 (SMARCA2, BRM): Luminescence-based cell-based high throughput dose response assay to identify non-selective compounds using the VP16 reporter assay.; type: functional
HEK293 [3] = assay: cells; conditions: Homo sapiens; remark: listed apart in the source
[4] = target: Beta-2 adrenergic receptor (Homo sapiens, UniProt P07550); assay: beta2AR agonists driving receptor internalization, dose response, cell-based, FAP fluorogen, flow cytometry, cherry pick 1 (AID 588763); type: functional
Chain of Beta-2 adrenergic receptor (P07550 whole entry): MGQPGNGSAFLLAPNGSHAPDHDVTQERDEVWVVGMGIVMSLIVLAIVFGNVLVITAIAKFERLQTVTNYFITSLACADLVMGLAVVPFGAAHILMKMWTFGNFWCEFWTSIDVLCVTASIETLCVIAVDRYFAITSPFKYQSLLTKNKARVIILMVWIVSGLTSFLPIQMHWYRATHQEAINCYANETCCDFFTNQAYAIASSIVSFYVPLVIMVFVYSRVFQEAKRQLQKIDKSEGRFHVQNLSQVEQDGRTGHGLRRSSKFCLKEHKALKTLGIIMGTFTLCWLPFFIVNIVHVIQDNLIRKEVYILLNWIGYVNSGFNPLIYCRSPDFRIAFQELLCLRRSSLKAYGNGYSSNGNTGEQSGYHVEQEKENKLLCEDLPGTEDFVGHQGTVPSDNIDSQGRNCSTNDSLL

[5] = target: SWI/SNF-related matrix-associated actin-dependent regulator of chromatin subfamily A member 2 (Homo sapiens, UniProt P51531); assay: Luminescence-based cell-based high throughput dose response assay to identify activators of the function of SWI/SNF related, matrix associated, actin dependent regulator of chromatin, subfamily a, member 2 (SMARCA2, BRM).; type: functional
Chain of SWI/SNF-related matrix-associated actin-dependent regulator of chromatin subfamily A member 2 (P51531 whole entry): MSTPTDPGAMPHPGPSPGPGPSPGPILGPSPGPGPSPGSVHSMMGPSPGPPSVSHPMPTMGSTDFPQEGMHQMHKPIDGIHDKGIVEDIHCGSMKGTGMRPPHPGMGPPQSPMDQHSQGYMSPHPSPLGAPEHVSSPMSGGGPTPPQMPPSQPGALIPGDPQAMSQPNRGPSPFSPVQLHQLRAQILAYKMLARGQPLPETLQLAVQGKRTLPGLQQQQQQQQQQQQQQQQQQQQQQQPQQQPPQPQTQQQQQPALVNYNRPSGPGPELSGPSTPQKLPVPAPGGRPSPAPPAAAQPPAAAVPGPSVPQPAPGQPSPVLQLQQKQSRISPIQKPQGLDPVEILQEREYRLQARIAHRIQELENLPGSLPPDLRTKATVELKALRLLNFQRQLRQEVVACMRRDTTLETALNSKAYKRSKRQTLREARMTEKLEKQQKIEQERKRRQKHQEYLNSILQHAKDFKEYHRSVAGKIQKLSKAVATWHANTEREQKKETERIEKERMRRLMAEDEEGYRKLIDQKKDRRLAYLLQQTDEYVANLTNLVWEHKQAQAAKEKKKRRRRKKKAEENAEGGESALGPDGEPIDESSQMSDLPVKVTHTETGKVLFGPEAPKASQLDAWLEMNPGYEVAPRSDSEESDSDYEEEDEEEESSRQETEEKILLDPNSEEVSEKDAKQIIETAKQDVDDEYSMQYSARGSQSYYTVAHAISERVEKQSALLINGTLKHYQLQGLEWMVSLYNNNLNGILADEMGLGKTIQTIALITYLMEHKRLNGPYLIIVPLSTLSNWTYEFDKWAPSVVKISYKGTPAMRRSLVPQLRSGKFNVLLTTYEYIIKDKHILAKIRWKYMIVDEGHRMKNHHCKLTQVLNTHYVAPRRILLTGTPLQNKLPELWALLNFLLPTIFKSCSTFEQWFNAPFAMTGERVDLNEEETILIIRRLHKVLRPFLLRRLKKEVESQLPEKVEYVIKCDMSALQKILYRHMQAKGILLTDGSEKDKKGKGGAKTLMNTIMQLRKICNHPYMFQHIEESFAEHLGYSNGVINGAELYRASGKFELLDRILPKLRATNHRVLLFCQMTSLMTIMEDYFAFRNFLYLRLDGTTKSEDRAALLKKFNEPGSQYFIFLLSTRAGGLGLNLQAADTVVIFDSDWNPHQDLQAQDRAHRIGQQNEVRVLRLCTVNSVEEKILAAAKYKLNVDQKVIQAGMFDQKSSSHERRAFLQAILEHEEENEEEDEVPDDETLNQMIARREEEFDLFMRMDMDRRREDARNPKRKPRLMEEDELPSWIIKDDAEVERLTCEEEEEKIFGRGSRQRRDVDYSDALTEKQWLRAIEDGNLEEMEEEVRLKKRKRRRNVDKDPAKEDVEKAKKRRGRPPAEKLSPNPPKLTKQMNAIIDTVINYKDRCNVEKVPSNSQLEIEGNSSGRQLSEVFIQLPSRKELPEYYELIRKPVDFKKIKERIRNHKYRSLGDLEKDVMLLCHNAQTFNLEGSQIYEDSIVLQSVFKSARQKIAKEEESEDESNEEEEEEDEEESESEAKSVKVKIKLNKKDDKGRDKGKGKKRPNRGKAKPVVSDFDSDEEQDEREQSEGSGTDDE

Galanin receptor type 3 = Galanin receptor type 3 (Homo sapiens, UniProt O60755); assay: Fluorescence-based cell-based primary high throughput dose response assay to identify antagonists of the Galanin Receptor 3 (GalR3).; type: functional
Chain of Galanin receptor type 3 (O60755 whole entry): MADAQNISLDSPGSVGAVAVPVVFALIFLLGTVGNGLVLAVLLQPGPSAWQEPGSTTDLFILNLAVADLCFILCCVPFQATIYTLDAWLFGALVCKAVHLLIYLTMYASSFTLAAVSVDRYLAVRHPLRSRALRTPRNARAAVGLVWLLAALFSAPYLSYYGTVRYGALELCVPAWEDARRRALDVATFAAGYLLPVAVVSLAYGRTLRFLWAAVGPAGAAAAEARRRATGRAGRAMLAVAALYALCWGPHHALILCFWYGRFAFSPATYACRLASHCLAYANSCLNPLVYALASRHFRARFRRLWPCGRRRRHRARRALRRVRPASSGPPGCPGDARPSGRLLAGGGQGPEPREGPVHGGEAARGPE

[6] = target: T1, High affinity choline transporter 1 (Homo sapiens, UniProt Q9GZV3); assay: CHT inhibitors, dose response, cell-based, 5-point CRC, membrane potential dye (AID 504840); type: functional
T1 sequence (Q9GZV3 whole entry): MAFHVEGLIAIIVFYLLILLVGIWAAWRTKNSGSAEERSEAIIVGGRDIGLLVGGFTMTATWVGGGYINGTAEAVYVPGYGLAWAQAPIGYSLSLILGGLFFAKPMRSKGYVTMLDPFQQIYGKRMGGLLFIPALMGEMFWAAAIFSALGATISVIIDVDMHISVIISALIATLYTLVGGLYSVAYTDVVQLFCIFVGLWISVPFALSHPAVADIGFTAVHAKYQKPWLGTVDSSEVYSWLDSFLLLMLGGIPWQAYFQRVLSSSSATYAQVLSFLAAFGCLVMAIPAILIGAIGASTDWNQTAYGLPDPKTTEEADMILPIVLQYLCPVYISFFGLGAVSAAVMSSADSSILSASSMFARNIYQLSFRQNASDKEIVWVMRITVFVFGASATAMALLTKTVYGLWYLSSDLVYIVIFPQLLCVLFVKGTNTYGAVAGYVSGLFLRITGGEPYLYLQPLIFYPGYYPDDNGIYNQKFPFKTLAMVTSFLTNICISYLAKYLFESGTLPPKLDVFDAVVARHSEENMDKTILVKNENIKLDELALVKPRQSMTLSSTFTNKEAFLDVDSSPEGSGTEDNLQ

cells [7] = type: functional, cell-based; conditions: HEK-CNG
[8] = cytotoxicity in HEK-293T cells, dose response, cytotoxicity control for TCR NF-kB inhibitor project, luminescence, T-cell screen hits (AID 489026); type: functional, cell-based;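 note: cells exposed to compound about 14 hours before the viability readout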
INS1 = assay: beta cell apoptosis inhibitors, cytokine rescue, dose response, luminescence, retest (AID 449756); type: functional, cell-based; conditions: Rattus norvegicus;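 note: cell death triggered by IL-1 beta plus TNF-alpha plus IFN-gamma mixture; protective hits raise ATP signal compared with cytokine alone wells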
[9] = Shn3 3'UTR reporter inhibitors, dose response, cell-based, Clone20 osteoblasts, firefly luciferase, cherry-picked (AID 624132); type: functional;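 note: firefly luciferase luminescence from reporter carrying the Shn3 3'UTR in osteoblasts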
[10] = control 3'UTR Renilla luciferase suppression, dose response, counter-screen for Shn3 inhibitor project, cell-based, Clone20-Shn3RL, cherry-picked (AID 624133); type: functional
Protein Wnt-3a = Protein Wnt-3a (Mus musculus, UniProt P27467); assay: Wnt3a-driven reporter signaling inhibition, dose response, selectivity assay for Gli-SUFU antagonist project, Wnt-LIGHT cells, luminescence (AID 651570); type: functional; conditions: read-out: IC50_Mean;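 note: Wnt-LIGHT reporter cells stimulated with conditioned medium from Wnt3a-producing cells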
Chain of Protein Wnt-3a (P27467 whole entry): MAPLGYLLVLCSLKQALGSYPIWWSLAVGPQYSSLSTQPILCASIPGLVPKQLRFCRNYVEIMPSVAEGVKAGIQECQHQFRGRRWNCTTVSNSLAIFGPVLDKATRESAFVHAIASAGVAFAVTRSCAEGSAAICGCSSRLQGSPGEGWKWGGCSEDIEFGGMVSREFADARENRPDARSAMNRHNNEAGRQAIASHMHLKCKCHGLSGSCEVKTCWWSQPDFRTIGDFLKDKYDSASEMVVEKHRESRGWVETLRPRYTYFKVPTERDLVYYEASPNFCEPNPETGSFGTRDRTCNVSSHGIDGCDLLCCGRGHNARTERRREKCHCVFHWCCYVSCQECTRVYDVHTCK

[11] = target: T2, Scavenger receptor class B member 1 (Mus musculus, UniProt Q61009); assay: inhibitors of SR-BI-mediated HDL uptake, dose response, cell-based, ldlA[mSR-BI] CHO, DiI fluorescence, dry powder, set 10 (AID 624029); type: functional
T2 sequence (Q61009 whole entry): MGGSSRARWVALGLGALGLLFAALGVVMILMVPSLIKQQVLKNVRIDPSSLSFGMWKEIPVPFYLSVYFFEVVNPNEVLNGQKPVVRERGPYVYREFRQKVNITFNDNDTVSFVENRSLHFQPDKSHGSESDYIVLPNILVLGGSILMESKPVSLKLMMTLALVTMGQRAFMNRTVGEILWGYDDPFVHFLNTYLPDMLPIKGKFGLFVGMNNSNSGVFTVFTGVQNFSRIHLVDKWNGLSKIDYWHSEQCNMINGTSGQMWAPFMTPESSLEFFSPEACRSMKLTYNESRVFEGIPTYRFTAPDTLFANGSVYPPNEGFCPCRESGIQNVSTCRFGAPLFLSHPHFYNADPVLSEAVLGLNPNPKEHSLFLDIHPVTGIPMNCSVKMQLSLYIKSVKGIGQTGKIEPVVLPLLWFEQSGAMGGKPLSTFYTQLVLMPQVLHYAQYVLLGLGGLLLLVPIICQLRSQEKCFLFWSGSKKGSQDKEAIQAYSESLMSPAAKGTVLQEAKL

[12] = target: T2, Scavenger receptor class B member 1; assay: inhibitors of SR-BI dependent HDL uptake, dose response, ldlA[mSR-BI] CHO cells, fluorescence plate reader, dry powder, set 9 (AID 623880); type: functional, cell-based
cells [13] = type: functional, cell-based
cells [14] = type: functional, cell-based; remark: listed apart in the source
[15] = target: T3, Trace amine-associated receptor 1 (Homo sapiens, UniProt Q96RJ0); assay: Counterscreen for agonists of the human trace amine associated receptor 1 (hTAAR1): Fluorescence-based cell-based high throughput dose response assay to identify hTAAR1 agonist that also desensitize TAAR1 receptor response.; type: functional
T3 sequence (Q96RJ0 whole entry): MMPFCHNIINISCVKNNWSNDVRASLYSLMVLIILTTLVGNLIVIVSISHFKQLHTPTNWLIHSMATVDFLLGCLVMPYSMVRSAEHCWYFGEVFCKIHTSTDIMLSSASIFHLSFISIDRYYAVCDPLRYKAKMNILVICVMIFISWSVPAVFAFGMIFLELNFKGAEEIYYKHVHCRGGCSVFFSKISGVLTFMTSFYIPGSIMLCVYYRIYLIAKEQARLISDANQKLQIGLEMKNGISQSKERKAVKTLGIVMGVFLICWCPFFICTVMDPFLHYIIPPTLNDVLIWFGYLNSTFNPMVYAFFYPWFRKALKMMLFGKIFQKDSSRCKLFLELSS

[16] = target: T3, Trace amine-associated receptor 1; assay: Fluorescence-based cell-based high throughput dose response assay to identify agonists of the human trace amine associated receptor 1 (TAAR1).; type: functional
[17] = target: COUP transcription factor 2 (Homo sapiens, UniProt P24468); assay: Luminescence-based cell-based high throughput dose response assay to identify inhibitors of COUP-TFII (NR2F2).; type: functional;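 note: HEK293 cells transiently cotransfected with COUP-TFII expression vector and reporter; luciferase reporter luminescence driven by COUP-TFII from the pX2-168 reporter plasmid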
Chain of COUP transcription factor 2 (P24468 whole entry): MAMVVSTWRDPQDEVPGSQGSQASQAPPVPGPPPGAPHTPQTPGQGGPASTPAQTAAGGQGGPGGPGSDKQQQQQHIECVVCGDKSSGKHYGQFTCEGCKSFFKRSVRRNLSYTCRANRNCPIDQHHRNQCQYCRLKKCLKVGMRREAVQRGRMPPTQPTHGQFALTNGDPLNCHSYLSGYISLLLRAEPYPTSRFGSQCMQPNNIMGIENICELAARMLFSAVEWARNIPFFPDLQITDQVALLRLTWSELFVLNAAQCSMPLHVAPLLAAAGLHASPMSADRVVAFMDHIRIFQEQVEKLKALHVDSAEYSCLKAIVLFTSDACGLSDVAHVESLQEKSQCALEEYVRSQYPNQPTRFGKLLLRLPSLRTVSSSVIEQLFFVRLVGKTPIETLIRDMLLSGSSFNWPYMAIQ

[18] = target: Fructose-bisphosphate aldolase (Mycobacterium tuberculosis, UniProt P9WQA3); assay: Fluorescence-based biochemical high throughput dose response assay for inhibitors of the fructose-bisphosphate aldolase (FBA) of M. tuberculosis.; type: functional
Chain of Fructose-bisphosphate aldolase (P9WQA3 whole entry): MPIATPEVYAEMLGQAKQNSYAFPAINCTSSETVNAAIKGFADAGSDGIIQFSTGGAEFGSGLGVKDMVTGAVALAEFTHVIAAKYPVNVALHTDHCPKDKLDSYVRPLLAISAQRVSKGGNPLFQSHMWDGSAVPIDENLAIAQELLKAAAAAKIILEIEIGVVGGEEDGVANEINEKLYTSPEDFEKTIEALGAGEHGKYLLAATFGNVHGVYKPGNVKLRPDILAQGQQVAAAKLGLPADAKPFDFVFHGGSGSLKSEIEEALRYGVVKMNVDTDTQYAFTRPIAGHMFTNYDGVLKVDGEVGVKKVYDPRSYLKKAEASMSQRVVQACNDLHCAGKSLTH

Beta-galactosidase = Beta-galactosidase (Escherichia coli, UniProt Q8VNN2); assay: Dose response counterscreen for EBI2 assay utilizing the enzyme, b-galactosidase.; type: functional
Chain of Beta-galactosidase (Q8VNN2 whole entry): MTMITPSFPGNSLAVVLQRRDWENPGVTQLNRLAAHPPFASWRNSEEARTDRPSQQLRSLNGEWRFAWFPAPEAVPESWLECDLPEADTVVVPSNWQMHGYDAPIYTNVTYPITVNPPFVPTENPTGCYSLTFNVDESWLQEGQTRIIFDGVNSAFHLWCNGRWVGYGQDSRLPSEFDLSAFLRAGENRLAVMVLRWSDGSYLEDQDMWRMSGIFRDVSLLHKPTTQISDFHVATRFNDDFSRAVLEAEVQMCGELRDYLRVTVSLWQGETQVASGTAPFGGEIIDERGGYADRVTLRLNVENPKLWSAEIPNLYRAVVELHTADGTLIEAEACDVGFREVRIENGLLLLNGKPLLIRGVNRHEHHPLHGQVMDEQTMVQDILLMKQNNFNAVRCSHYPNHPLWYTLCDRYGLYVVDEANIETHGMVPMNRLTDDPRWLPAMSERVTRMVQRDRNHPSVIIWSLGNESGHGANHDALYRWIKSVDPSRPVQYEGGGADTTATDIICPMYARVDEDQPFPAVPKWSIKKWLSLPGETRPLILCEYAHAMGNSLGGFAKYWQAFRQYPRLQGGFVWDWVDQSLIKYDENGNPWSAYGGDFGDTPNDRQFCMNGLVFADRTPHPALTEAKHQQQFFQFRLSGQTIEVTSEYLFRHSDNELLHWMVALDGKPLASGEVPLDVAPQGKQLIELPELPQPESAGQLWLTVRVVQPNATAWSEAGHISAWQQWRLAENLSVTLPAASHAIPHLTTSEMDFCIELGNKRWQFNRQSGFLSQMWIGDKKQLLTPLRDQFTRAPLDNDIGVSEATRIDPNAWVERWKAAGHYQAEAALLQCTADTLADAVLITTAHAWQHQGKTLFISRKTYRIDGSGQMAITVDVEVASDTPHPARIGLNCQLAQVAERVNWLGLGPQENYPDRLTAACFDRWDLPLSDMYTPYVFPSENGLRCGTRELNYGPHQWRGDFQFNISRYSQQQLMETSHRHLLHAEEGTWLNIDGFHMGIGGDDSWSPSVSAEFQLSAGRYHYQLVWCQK

[19] = target: ATP-dependent translocase ABCB1 (Homo sapiens, UniProt P08183); assay: ABCB1 efflux inhibition concentration-response, dose response, Jurkat-DNR cells, JC-1, flow cytometry, follow-up (AID 489002); type: functional
[20] = NIH3T3 fibroblast cytotoxicity, dose response, cytotoxicity control for PglD inhibitor project, cell-based, CellTiter-Glo luminescence, dry powder (AID 652044); type: functional

CC1(C)Cc2c(c(-c3ccco3)nc3sc4c(NCCCO)ncnc4c23)CO1
EC50 (HEK293 [1]): > 59.6 µM (inactive) | EC50 [2]: > 91.2 µM (inactive) | EC50 (HEK293 [3]): > 59.6 µM (inactive) | EC50 [4]: 0.0207 µM (active) | EC50 [5]: > 91.2 µM (inactive)

CCOC(=O)CC1CCCCN1C(=O)c1cc(COc2cccc3cnccc23)on1 (centres undefined)
IC50 (Galanin receptor type 3): 0.448 µM (active) | IC50 [6]: 11 µM (active) | EC50 (cells [7]): > 29.9 µM (inactive) | IC50 [8]: > 80 µM (inactive) | AC50 (INS1): 5.89 µM (active) | AC50 [9]: 0.713 µM (active) | AC50 [10]: 0.67 µM (active) | IC50 (Protein Wnt-3a): 0.777 µM (active)

COc1ccc2c(c1)CC(C1(O)C(=O)N(C)c3ccccc31)C2=O (centres undefined)
AC50 [11]: > 70 µM (inactive) | AC50 [12]: > 70 µM (inactive)

Cc1cccc(CSC(=N)N)c1
EC50 (cells [13]): > 30 µM (inactive) | IC50 (cells [14]): > 30 µM (inactive) | IC50 [15]: 16.9 µM (inactive) | EC50 [16]: 1.21 µM (active)

Cc1ccc(-n2nc3c(=O)n(C(C)C(=O)NCCCc4ccccc4)nc(C)c3c2C)cc1 (centres undefined)
IC50 [17]: 11.7 µM (inactive)

CN(C)c1nc(OCc2ccccc2)c2ncc(=O)[nH]c2n1
IC50 [18]: 2.82 µM (active)

COc1ccc(N2CCN(C(=O)c3cc(-c4ccc(F)cc4)[nH]c3C)CC2)cc1
IC50 (Beta-galactosidase): > 80 µM (inactive)

CC1CN(C(=O)c2ccoc2)CCN1c1cc(-c2ccco2)nc2cc(-c3ccccc3)nn12 (centres undefined)
EC50 [19]: 0.0002986 µM

C[C@@H]1CN([C@@H](C)CO)C(=O)c2cc(NC(=O)Nc3ccc(F)cc3)ccc2O[C@@H]1CN(C)CC1CCCCC1
AC50 [20]: 43.4 µM (active)
